Blank lines part the entries; values can stand above or below the compound they belong to.
Tests used:
Jurkat = experiment: Antiproliferative activity against human Jurkat cells assessed as reduction in cell viability measured after 48 hrs by MTT assay; type: functional, cell-based
K562 = experiment: Antiproliferative activity against human K562 cells assessed as reduction in cell viability measured after 48 hrs by MTT assay; type: functional, cell-based; conditions: K562, 48 h
[1] = Half life in mouse; type: ADME, organism-based; conditions: in vivo
HEL = experiment: Antiproliferative activity against human HEL cells assessed as reduction in cell viability measured after 48 hrs by MTT assay; type: functional, cell-based
[2] = Binding affinity to human wild type HIF2alpha assessed as dissociation constant by calorimetry assay
[3] = Inhibition of HIF (unknown origin); parameters: species or system Homo sapiens
physchem = conditions: octanol/water
Description: Lipophilicity, log P of the compound

[4] = biological target: T1, Amyloid-beta precursor protein (Homo sapiens, UniProt P05067); experiment: Inhibition of amyloid beta 42 in human HEK293 cells; type: cell-based
T1 sequence (P05067 whole entry): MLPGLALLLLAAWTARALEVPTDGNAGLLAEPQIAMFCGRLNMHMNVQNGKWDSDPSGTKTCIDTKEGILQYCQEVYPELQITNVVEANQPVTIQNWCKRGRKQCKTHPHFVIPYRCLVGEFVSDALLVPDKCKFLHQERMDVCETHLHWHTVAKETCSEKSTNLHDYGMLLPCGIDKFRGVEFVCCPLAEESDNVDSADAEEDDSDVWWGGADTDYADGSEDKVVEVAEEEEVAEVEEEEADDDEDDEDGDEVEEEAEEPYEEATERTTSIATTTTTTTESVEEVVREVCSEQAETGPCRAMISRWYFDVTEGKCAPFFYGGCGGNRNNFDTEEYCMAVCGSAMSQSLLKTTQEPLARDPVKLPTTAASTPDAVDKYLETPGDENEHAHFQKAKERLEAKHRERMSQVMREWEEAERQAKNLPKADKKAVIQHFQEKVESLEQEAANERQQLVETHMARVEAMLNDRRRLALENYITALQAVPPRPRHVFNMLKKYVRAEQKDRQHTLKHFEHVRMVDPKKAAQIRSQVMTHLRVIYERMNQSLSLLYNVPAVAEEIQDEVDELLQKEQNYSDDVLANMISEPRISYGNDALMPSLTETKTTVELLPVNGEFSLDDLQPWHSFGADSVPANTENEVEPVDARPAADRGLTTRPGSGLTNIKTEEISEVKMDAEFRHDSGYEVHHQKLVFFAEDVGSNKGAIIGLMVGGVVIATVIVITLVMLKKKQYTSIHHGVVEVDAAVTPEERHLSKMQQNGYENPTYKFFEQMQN

HCT-116 = experiment: Antiproliferative activity against human HCT-116 cells assessed as reduction in cell viability by MTT assay; type: functional, cell-based
NT2 = experiment: Inhibition of camptothecin induced apoptosis in human NT2 cells incubated for 5 hrs in presence of camptothecin by ELISA method; type: functional, cell-based; conditions: NT2, 5 h
[5] = biological target: T1, Amyloid-beta precursor protein; experiment: Inhibition of amyloid beta 42 in human H4 cells; type: cell-based
[6] = Stability in rat assessed as intrinsic clearance; type: ADME; conditions: CLH
HeLa = experiment: cells; conditions: Homo sapiens
Description: Antiproliferative activity against human HeLa cells assessed as reduction in cell viability

Rattus norvegicus [7] = organism: Rattus norvegicus; experiment: Anti-inflammatory activity against ovalbumin induced lung inflammatory rat model assessed as reduction in eosinophil influx; type: functional
[8] = biological target: 3',5'-cyclic-AMP phosphodiesterase 4D (Homo sapiens, UniProt Q08499); experiment: Inhibition of human recombinant PDE4D
Chain of 3',5'-cyclic-AMP phosphodiesterase 4D (Q08499 whole entry): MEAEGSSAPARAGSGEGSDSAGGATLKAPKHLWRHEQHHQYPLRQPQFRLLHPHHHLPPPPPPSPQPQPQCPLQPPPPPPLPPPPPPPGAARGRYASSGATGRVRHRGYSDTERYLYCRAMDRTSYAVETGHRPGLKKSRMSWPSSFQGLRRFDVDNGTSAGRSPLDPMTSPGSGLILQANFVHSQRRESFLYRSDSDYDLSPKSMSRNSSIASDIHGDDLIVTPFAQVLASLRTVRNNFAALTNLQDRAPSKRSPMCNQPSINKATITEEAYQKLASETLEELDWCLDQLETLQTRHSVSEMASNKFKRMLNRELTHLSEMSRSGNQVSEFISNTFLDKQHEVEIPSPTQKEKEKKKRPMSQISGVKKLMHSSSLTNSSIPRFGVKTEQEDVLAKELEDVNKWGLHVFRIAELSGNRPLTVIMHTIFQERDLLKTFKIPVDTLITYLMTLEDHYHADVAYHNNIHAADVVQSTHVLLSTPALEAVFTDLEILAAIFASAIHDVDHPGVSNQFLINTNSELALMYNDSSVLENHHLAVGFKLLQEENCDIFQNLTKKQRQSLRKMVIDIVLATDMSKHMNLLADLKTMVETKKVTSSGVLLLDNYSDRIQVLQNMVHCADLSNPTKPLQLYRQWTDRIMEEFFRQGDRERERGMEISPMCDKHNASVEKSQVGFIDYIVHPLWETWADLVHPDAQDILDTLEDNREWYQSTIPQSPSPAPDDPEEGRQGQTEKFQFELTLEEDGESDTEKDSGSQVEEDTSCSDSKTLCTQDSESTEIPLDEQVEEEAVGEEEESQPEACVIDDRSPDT

[9] = Anti-inflammatory activity against human PBMCs assessed as reduction in LPS-induced TNF-alpha release by ELISA analysis; type: functional, cell-based; conditions: PBMC
Mus musculus = organism: Mus musculus; experiment: Anti-inflammatory activity in LPS-induced inflammatory mouse model assessed as reduction in neutrophil influx; type: functional
HASMC = experiment: Antiproliferative activity against human HASMC cells assessed as inhibition of cell proliferation measured after 24 hrs by MTT assay; type: functional, cell-based
Rattus norvegicus [10] = organism: Rattus norvegicus; experiment: Antihypertensive activity in spontaneously hypertensive rat model assessed as reduction in systemic arterial pressure; type: functional
Rattus norvegicus [11] = organism: Rattus norvegicus; experiment: Antihypertensive activity in spontaneously hypertensive rat model assessed as reduction in pulmonary arterial pressure; type: functional
[12] = Drug concentration in ipsilateral striatum of malonate induced huntington disease rat measured after 6 hrs by LC/MS-MS analysis; type: ADME, tissue-based; conditions: read-out: Ct
Caspase-8 = Caspase-8 (Homo sapiens, UniProt Q14790); experiment: Inhibition of caspase-8 (unknown origin)
Chain of Caspase-8 (Q14790 217-374 limits assumed): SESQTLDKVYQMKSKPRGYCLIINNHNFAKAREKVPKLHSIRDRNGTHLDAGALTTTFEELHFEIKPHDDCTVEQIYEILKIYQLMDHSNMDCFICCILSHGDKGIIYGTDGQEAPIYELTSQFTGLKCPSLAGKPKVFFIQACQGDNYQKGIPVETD
Chain of Caspase-8 (Q14790 385-479 limits assumed): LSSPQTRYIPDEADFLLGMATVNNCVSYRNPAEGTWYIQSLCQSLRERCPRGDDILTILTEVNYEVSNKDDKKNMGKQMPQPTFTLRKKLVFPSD

Caspase-7 = Caspase-7 (Homo sapiens, UniProt P55210); experiment: Inhibition of caspase-7 (unknown origin)
Chain of Caspase-7 (P55210 24-198 limits assumed): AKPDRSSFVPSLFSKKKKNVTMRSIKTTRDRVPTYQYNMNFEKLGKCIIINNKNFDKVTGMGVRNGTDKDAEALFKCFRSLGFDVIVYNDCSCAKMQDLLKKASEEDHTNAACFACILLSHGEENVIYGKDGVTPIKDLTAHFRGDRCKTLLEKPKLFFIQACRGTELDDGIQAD
Chain of Caspase-7 (P55210 207-303 limits assumed): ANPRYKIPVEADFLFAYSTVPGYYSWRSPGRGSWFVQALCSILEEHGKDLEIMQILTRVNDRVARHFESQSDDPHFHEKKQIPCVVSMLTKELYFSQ

[13] = Drug concentration in ipsilateral striatum of malonate induced huntington disease rat measured after 24 hrs by LC/MS-MS analysis; type: ADME, tissue-based; conditions: read-out: Ct
[14] = Half life in Malonate induced Huntington disease rat; type: ADME; conditions: in vivo
[15] = Cmax in Malonate induced Huntington disease […] model at 1.5 nmol administered intra striatal measured for 1 hr by LC/MS-MS analysis; type: ADME; parameters: time 1 hrs, dose 1.5 nmol; conditions: in vivo
Caspase-3 = Caspase-3 (Homo sapiens, UniProt P42574); experiment: Inhibition of caspase-3 (unknown origin)
Chain of Caspase-3 (P42574 29-175 limits assumed): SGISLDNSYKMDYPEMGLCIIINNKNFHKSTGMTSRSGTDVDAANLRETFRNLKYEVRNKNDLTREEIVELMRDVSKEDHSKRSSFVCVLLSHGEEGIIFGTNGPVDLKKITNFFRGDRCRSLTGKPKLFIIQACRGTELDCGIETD
Chain of Caspase-3 (P42574 176-277 limits assumed): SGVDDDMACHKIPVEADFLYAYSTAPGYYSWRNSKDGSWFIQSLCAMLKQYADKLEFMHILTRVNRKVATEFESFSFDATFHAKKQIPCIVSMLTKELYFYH

Caspase-1 = Caspase-1 (Homo sapiens, UniProt P29466); experiment: Inhibition of caspase-1 (unknown origin)
Chain of Caspase-1 (P29466 120-297 limits assumed): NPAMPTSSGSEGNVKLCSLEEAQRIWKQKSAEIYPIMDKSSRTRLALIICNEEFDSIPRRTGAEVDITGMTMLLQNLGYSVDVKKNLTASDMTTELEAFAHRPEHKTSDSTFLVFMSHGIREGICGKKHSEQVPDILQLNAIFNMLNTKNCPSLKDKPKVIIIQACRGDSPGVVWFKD
Chain of Caspase-1 (P29466 317-404 limits assumed): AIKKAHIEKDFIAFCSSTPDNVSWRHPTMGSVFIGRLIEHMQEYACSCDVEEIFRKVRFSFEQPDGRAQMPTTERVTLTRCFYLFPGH

[16] = biological target: T1, Amyloid-beta precursor protein; experiment: Inhibition of amyloid beta (unknown origin) aggregation at 5 uM relative to control
HL-60 = experiment: Antiproliferative activity against (unknown origin) HL-60 assessed as inhibition of cell proliferation by MTT assay; type: functional, cell-based; conditions: Homo sapiens
c-Myc/c-Max = c-Myc/c-Max (Homo sapiens, UniProt P01106+P61244); experiment: Inhibition of Myc/Max (unknown origin); type: protein assay
Chain of c-Myc/c-Max (P01106 whole entry): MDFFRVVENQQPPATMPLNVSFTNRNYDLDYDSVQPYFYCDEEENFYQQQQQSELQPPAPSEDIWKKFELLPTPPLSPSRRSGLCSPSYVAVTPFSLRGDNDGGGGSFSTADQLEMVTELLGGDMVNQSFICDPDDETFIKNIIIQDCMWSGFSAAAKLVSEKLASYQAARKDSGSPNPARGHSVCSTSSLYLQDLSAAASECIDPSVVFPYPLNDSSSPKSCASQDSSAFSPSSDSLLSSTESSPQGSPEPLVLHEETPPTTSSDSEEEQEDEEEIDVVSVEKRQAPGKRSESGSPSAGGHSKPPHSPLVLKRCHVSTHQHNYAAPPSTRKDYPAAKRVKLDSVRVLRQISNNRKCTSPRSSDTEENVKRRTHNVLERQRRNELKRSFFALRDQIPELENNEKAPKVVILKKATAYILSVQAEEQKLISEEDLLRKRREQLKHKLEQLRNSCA
Chain of c-Myc/c-Max (P61244 whole entry): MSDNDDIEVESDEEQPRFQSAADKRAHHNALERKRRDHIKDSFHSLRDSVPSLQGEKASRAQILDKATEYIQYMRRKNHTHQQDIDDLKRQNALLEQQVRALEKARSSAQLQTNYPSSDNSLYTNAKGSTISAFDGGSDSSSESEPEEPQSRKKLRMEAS

Daudi = experiment: Antiproliferative activity against human Daudi assessed as inhibition of cell proliferation by MTT assay; type: functional, cell-based
Rattus norvegicus [17] = experiment: Antihypertensive activity in spontaneously hypertensive rat model assessed as change in blood pressure at 1 mg/kg, po measured after 10 hrs; type: functional
Rattus norvegicus [18] = experiment: Antihypertensive activity in spontaneously hypertensive rat model assessed as change in heart rate at 10 mg/Kg, po measured after 6 hrs; type: functional
Rattus norvegicus [19] = experiment: Antihypertensive activity in spontaneously hypertensive rat model assessed as change in blood pressure at 1 mg/kg, po measured after 3 hrs; type: functional
Rattus norvegicus [20] = experiment: Antihypertensive activity in spontaneously hypertensive rat model assessed as change in heart rate at 1 mmol/Kg, po measured after 10 hrs; type: functional
Rattus norvegicus [21] = experiment: Antihypertensive activity in spontaneously hypertensive rat model assessed as change in heart rate at 1 umol/kg, po measured after 3 hrs; type: functional

SMILES: Fc1cc(Br)cc([C@@H]2C[C@H](c3cccc(Br)c3)n3nnnc3N2)c1
Kd [2]: 23 nM | IC50 [3]: 43000 nM | logP (physchem): 4.4

SMILES: O=C(O)[C@H](CC1CCC1)c1cc(Cl)c(OCC(F)(F)F)c(-c2ccc(C(F)(F)F)cc2)c1
EC50 [5]: 70 nM

SMILES: O=c1[nH]ccc2cc(OC3CCNCC3)ccc12 [SAR-407899 FREE BASE]
IC50 (HASMC): 122 nM | Activity (Rattus norvegicus [10]): -19 mmHg | Activity (Rattus norvegicus [11]): -6 mmHg

SMILES: CCCCCCN(C)CC(=O)C(CC(=O)O)NC(=O)[C@H](CC)n1cc(C(C)(C)C)nc(NCc2nonc2C)c1=O (some centres not stated)
concentration at 6 h [12]: 5.1 µM | IC50 (Caspase-8): 6480 nM | EC50 (NT2): 21 nM | IC50 (Caspase-7): 42 nM | concentration at 24 h [13]: 0.1 µM | half-life [14]: 3 h | Cmax [15]: 32.2 µM | IC50 (Caspase-3): 6 nM | IC50 (Caspase-1): 67 nM

SMILES: OC(c1cccc(-c2cc(NCc3ccccc3)c3nonc3c2)c1)C(F)(F)F (configuration not stated)
inhibition [16]: 57.1%

SMILES: Nc1nonc1/C(=N/O)NCc1ccccc1
EC50 (HeLa): 1000 nM

SMILES: O=C(O)c1ccc(-c2ccccc2Nc2ccc([N+](=O)[O-])c3nonc23)cc1
EC50 (HL-60): 148000 nM | IC50 (c-Myc/c-Max): 33000 nM | EC50 (Daudi): 56000 nM

SMILES: CCn1c(-c2nonc2N)nc2cnc(Oc3cccc(NC(=O)c4ccc(OCCN5CCOCC5)cc4)c3)cc21 [GSK-269962A]
Activity (Rattus norvegicus [17]): 0 mmHg | Activity (Rattus norvegicus [18]): 10 bpm | Activity (Rattus norvegicus [19]): -20 mmHg | Activity (Rattus norvegicus [20]): 0 bpm | Activity (Rattus norvegicus [21]): 30 bpm

Continued, in another order:

EC50 (Jurkat): 290 nM | EC50 (K562): 780 nM | half-life [1]: 1.5 h
SMILES: CC1(C)CC[C@]2(C(=O)O)CC[C@]3(C)C(=CC[C@@H]4[C@@]5(C)Cc6nonc6C(C)(C)[C@@H]5CC[C@]43C)[C@@H]2C1
EC50 (HEL): > 210 nM

EC50 [4]: 70 nM
SMILES: CC(C)CC(C(=O)O)c1cc(Cl)c(OCC2CC2)c(-c2ccc(C(F)(F)F)cc2)c1 (configuration not stated)

EC50 (HCT-116): 2500 nM
SMILES: O=C(Nc1ccc(C(F)(F)F)cc1)Nc1nonc1-c1ccc(Cl)cc1

EC50 (NT2): > 100000 nM
SMILES: CC(=O)N[C@@H](CC(=O)O)C(=O)N[C@@H](CCC(=O)O)C(=O)N[C@H](C(=O)N[C@H](C=O)CC(=O)O)C(C)C

CLint scaled [6]: > 36.7 mL/min/kg | EC50 (HeLa): 19 nM
SMILES: Nc1nonc1C(=NO)Nc1ccc(F)c(Cl)c1

IC50 [8]: 41 nM | EC50 [9]: 126 nM
SMILES: O=C(O)[C@H]1CC[C@H](c2cc3cccnc3c(-c3cccc(F)c3)n2)CC1
ED50 (Rattus norvegicus [7]): 0.0034 µmol/kg | ED50 (Mus musculus): 0.032 µmol/kg

Kd [2]: 80 nM | IC50 [3]: 100 nM | logP (physchem): 3.99
SMILES: O=[N+]([O-])c1c(Nc2cc(F)cc(Cl)c2)ccc2nonc12

From ChEMBL document CHEMBL5236544, “Furazans in Medicinal Chemistry” (J Med Chem, 2021)
